Calls of active or inactive are those of the source.
How the values were obtained:
[1] = blockers of bursicon-stimulated LGR2 cAMP reporter – cell-based, HEK293, CRE-luciferase reporter, cherry pick, set 2, dose response (AID 743343); type: functional;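 note: transfected cells were stimulated with diluted bursicon conditioned medium after compound addition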
[2] = blockade of melanocortin 4 receptor signaling – cell-based, plate reader, cherry pick, counter-screen for LGR2 antagonist project, dose response (AID 743444); type: functional;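 note: transfected HEK 293 cells stimulated with alpha-MSH peptide; potency of inhibitors of the alpha-MSH evoked signal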
[3] = A549 cell cytotoxicity, dose response, cytotoxicity control, plate reader, cherry-pick, antagonist series (AID 743412); type: functional, cell-based
Prothrombin = Prothrombin (Homo sapiens, UniProt P00734); experiment: Thrombin 1536 HTS Dose Response Confirmation. [Related pubchem assays: 1046 (Thrombin 1536 HTS; hits were confirmed in this assay)]; type: functional
[4] = toxicity toward HepG2 liver cells – cell-based, plate reader, cherry-pick, antagonist series, cytotoxicity control, dose response (AID 743416); type: functional
HEK293 = experiment: EBV LMP1 TES2 canonical NF-kB signalling blockers – cell-based, HEK293, luciferase, cherry-pick, dose response (AID 588343); type: functional; conditions: Homo sapiens
[5] = viability of uninfected HEp-2 cells – cell-based, HTS, cytotoxicity control for RSV inhibitor project, dose response (AID 2410); type: functional; conditions: human respiratory syncytial virus
fMet-Leu-Phe receptor = target: T1, fMet-Leu-Phe receptor (Homo sapiens, UniProt P21462); experiment: formyl peptide receptor binders – dose response (AID 519); type: functional
T1 sequence (P21462 whole entry): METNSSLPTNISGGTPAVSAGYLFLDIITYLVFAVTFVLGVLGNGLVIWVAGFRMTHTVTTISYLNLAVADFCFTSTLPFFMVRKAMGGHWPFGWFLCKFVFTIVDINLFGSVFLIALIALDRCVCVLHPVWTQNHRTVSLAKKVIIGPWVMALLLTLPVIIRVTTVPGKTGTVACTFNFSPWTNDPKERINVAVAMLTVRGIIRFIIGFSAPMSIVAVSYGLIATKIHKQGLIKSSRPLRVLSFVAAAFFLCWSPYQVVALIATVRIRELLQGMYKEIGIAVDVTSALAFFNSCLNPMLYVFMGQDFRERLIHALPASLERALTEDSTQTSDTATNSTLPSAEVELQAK

Bcl-2-related protein A1 [6] = target: T2, Bcl-2-related protein A1 (Mus musculus, UniProt Q07440); experiment: Bfl-1 binding inhibitors, SAR follow-up, biochemical, fluorescence polarization (AID 1070)
T2 sequence (Q07440 whole entry): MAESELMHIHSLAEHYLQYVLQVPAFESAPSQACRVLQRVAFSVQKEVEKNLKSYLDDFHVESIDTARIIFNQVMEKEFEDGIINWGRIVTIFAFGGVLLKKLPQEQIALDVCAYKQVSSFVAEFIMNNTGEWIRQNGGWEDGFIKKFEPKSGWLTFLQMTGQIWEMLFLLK

[7] = target: Glyceraldehyde-3-phosphate dehydrogenase (Homo sapiens, UniProt P04406)
Chain of Glyceraldehyde-3-phosphate dehydrogenase (P04406 whole entry): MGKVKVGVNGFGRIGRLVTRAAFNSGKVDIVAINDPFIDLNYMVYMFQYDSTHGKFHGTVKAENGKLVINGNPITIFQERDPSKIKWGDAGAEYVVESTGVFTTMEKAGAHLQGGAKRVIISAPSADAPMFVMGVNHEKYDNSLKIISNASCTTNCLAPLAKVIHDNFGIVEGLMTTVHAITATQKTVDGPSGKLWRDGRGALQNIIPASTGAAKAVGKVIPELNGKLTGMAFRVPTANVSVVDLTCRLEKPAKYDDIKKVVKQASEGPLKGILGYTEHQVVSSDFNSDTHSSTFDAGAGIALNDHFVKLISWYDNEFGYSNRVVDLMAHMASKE

Bcl-2-related protein A1 [8] = target: T2, Bcl-2-related protein A1; experiment: small-molecule antagonists of Bfl-1/BH3 interaction – biochemical, TR-FRET, mouse Bfl-1, confirmation (AID 621);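 note: TR-FRET binding of GST-Bfl-1 to FITC-labelled Bid peptide via terbium antibody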
Cytochrome P450 2D6 [9] = target: T3, Cytochrome P450 2D6 (Homo sapiens, UniProt P10635); experiment: qHTS Assay for Inhibitors and Substrates of Cytochrome P450 2D6. [Related pubchem assays: 410 ]; type: ADME; conditions: read-out: Potency
T3 sequence (P10635 whole entry): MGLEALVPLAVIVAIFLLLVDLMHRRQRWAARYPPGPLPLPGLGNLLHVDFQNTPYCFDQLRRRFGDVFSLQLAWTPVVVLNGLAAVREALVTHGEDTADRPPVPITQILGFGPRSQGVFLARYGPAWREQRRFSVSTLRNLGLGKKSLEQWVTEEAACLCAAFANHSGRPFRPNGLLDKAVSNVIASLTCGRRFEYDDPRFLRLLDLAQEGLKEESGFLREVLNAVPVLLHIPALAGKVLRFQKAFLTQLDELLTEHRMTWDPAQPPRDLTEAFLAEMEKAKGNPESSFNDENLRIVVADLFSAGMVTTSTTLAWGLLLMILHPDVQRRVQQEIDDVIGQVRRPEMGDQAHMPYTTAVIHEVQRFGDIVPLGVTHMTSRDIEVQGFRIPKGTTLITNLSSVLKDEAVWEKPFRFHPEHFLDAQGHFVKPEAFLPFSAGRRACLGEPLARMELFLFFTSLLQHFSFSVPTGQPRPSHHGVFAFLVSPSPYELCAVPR

Cytochrome P450 2D6 [10] = target: T3, Cytochrome P450 2D6
[11] = target: T4, Short transient receptor potential channel 4 (Mus musculus, UniProt Q9QUQ5); experiment: block of DAMGO-driven TRPC4 calcium entry – cell-based, HEK293 TRPC4/mu-opioid, Fluo-4 calcium, dose response (AID 434942); type: functional;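 note: potency of inhibitors blocking the TRPC4 calcium response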
T4 sequence (Q9QUQ5 whole entry): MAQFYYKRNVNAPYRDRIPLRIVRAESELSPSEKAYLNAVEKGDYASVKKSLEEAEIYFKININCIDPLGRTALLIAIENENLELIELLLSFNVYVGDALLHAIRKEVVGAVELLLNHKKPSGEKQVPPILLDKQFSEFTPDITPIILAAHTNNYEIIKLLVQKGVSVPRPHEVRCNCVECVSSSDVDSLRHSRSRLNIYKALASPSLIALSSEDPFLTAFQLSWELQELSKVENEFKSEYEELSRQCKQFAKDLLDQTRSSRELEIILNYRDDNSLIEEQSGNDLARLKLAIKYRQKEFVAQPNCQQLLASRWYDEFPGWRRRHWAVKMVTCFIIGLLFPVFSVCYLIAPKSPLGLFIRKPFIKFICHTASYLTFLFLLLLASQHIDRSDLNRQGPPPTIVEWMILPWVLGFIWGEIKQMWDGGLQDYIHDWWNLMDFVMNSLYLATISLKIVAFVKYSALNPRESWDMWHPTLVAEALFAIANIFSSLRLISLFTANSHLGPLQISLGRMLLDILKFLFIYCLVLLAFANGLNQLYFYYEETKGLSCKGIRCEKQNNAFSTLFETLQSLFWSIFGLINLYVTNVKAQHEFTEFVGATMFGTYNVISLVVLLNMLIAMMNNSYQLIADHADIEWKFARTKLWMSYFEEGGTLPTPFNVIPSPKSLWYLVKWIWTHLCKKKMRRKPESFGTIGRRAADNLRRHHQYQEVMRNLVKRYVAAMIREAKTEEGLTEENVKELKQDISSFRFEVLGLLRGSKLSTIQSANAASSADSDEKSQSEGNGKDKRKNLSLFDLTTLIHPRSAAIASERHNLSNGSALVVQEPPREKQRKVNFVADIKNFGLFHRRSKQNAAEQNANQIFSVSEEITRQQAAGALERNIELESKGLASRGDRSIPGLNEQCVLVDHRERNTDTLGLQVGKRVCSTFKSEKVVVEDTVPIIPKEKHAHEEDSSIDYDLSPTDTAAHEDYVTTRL

Cytochrome P450 3A4 = Cytochrome P450 3A4 (Homo sapiens, UniProt P08684);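 note: CYP3A4 tested as one member of a cytochrome P450 panel screen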
Chain of Cytochrome P450 3A4 (P08684 whole entry, the tested form may be a part): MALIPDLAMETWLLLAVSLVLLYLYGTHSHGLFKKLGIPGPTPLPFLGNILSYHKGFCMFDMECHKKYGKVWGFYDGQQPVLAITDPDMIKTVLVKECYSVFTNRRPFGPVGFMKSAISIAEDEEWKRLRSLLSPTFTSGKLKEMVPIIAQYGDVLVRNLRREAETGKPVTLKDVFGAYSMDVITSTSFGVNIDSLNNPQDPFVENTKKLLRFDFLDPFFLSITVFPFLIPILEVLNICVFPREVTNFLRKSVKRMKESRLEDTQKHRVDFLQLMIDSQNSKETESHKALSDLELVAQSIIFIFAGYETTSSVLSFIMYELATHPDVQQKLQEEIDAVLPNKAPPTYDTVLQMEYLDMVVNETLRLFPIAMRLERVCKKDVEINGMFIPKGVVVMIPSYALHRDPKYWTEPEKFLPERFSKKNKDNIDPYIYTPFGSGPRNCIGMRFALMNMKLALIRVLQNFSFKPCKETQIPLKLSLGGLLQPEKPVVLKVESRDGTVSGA

[12] = target: Disintegrin and metalloproteinase domain-containing protein 17 (Homo sapiens, UniProt P78536); experiment: exosite inhibitors of ADAM17, dose response, biochemical (AID 743260)
Chain of Disintegrin and metalloproteinase domain-containing protein 17 (P78536 whole entry, the tested form may be a part): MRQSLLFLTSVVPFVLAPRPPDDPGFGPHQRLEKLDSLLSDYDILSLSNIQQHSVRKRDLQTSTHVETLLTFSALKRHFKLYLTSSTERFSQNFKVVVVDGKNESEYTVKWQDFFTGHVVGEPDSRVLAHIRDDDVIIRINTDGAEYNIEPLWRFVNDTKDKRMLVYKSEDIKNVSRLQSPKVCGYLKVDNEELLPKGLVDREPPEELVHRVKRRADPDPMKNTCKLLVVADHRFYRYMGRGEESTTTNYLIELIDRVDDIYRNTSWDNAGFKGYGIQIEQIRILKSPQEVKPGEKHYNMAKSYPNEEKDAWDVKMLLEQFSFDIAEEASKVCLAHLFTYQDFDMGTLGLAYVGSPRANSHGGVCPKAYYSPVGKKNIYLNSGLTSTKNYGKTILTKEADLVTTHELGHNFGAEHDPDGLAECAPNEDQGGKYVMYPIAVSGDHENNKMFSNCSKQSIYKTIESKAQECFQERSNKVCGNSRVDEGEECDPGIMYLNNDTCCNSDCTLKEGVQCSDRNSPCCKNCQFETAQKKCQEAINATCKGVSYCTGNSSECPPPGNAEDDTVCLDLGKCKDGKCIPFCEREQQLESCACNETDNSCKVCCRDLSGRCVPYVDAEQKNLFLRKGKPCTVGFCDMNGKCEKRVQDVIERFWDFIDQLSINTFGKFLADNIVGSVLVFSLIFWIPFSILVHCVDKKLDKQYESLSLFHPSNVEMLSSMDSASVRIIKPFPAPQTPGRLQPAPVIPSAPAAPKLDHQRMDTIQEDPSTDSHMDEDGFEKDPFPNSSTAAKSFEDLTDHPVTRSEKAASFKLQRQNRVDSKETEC

[13] = inhibition of ADAM10 peptide cleavage – biochemical, FRET peptide substrate, recombinant human ADAM10, selectivity assay for ADAM17 exosite inhibitor project, dose response (AID 743259);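 note: ADAM10 enzyme cleaving a FRET peptide substrate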
Cytochrome P450 2C9 = Cytochrome P450 2C9 (Homo sapiens, UniProt P11712); conditions: Potency
Chain of Cytochrome P450 2C9 (P11712 whole entry): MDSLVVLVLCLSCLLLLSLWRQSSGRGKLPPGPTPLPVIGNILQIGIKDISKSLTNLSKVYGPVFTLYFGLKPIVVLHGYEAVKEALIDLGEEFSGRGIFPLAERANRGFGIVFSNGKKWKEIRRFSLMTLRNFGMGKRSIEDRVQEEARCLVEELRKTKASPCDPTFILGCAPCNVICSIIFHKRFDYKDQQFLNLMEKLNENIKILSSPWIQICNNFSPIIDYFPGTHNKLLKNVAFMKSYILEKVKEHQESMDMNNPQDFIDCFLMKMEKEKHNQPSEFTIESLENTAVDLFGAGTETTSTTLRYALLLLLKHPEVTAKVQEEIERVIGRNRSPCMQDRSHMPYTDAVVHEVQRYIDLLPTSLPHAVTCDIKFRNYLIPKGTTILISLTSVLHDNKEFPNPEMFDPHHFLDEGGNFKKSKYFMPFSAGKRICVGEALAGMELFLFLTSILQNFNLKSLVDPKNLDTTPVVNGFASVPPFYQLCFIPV

[14] = target: Eukaryotic translation initiation factor 4E (Mus musculus, UniProt P63073); experiment: blockers of eIF4G binding by eIF4E – biochemical, TR-FRET, dose response (AID 855); type: functional;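 note: potency for disrupting eIF4E binding to eIF4GI seen as loss of FRET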
Chain of Eukaryotic translation initiation factor 4E (P63073 whole entry): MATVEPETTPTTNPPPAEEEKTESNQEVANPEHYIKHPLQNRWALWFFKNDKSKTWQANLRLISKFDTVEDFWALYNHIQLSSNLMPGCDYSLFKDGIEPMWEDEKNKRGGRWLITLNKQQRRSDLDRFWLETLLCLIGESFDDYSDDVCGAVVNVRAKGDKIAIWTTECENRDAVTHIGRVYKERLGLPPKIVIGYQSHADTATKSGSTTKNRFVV

[15] = viability loss in Vero cells – cytotoxicity control for Vif-APOBEC3G degradation inhibitor project, dose response (AID 1117358); type: functional; conditions: Vero

O=C(Nc1nc2cc3c(cc2s1)OCO3)c1ccco1
AC50 [1]: 4.2 µM (active)
AC50 [2]: 4.79 µM (active)
AC50 [3]: > 52 µM (inactive)
IC50 (Prothrombin): 9.57 µM (active)
AC50 [4]: > 52 µM (inactive)
AC50 (HEK293): 1.57 µM (active)

Cc1ccc(NC(=O)C2CCCN2S(=O)(=O)c2cccc3cccnc23)cc1F (stereo not given)
CC50 [5]: 39.4 µM (active)
Ki (fMet-Leu-Phe receptor): > 66.7 µM (inactive)

O=C1C(Cl)=C(N2CCOCC2)C(=O)N1c1cc(Cl)cc(Cl)c1
IC50 (Bcl-2-related protein A1 [6]): 1.63 µM (active)
IC50 [7]: > 10 µM (inconclusive)
IC50 (Bcl-2-related protein A1 [8]): 1.33 µM (active)

COc1cccc(CN(C)C(=O)CCc2nnc(-c3ccsc3)o2)c1
IC50 (Prothrombin): > 50 µM (not active)

c1ccc(Nc2cc(-c3ccoc3)ncn2)cc1
AC50 (Cytochrome P450 2D6 [9]): 20 µM (inconclusive)

COCC(=O)n1nc(-c2ccccc2)nc1NCc1ccccc1
IC50 (Prothrombin): 0.246 µM (active)

CC(C)(C)c1cc2cccnc2n1Cc1ccccc1
AC50 (Cytochrome P450 2D6 [10]): 0.501 µM (inconclusive)
EC50 [11]: 2.11 µM (active)
AC50 (Cytochrome P450 3A4): 15.8 µM (inconclusive)

COc1ccc(NS(=O)(=O)c2cc(NC(=O)c3cccs3)ccc2N2CCCC2)cc1
IC50 [12]: > 69.5 µM (inactive)
IC50 [13]: > 69.5 µM (inactive)

C=C1C(=O)O[C@H]2C[C@@]3(C)CCCC(=C)[C@@H]3C[C@H]12
AC50 (Cytochrome P450 2D6 [9]): 10 µM (inconclusive)
AC50 (Cytochrome P450 2C9): 39.8 µM (inconclusive)

CC(C)[C@@H](CC(=O)N[C@@H]1CCCC[C@H]1C(=O)N[C@H](CC(=O)N[C@@H](CCC(=O)O)CC(=O)O)Cc1ccccc1)NC(=O)C[C@H](Cc1ccccc1)NC(=O)[C@@H]1CNCC[C@H]1N
AC50 (Cytochrome P450 2C9): 6.31 µM (inconclusive)

O=C(c1ccccc1)N(Nc1ccccc1)c1ccccc1
IC50 [14]: 50 µM (inactive)

CN1C(=O)CSc2ccc(NC(=O)NCc3cccnc3)cc21
CC50 [15]: > 40 µM (active)

C=CC1=C(C)C2=NC/1=C\C1=[N+]3[Zn-2][N+]4=C(/C=C5N=C(/C=C3/C(CCC(=O)O)=C1C)C(CCC(=O)O)=C\5C)C(C)=C(C=C)/C4=C/2
AC50 (Cytochrome P450 2D6 [9]): 25.1 µM (inconclusive)
AC50 (Cytochrome P450 2C9): 39.8 µM (inconclusive)

O=C1C(Cl)=C(Cl)C(=O)N1c1ccc(C(F)(F)F)cc1
IC50 (Bcl-2-related protein A1 [6]): 0.999 µM (active)
IC50 [7]: > 100 µM (not active)
IC50 (Bcl-2-related protein A1 [8]): 1.46 µM (active)

O=C(C1=C(O)C(=O)N(c2ncccn2)C1c1ccc(Cl)cc1)c1ccco1 (stereo not given)
Ki (fMet-Leu-Phe receptor): > 66.7 µM (inactive)
